According to publication PMC12881674, “Activation of TRPV3 channels in bladder cancer cells stimulates ATP release” (Molecular Pharmacology, 2025):

Target: T1, mouse TRPV3 (Mus musculus, UniProt Q8K424)
T1 construct: expressed in transfected cells; host or cells: HEK293
T1 sequence (Q8K424 1-791): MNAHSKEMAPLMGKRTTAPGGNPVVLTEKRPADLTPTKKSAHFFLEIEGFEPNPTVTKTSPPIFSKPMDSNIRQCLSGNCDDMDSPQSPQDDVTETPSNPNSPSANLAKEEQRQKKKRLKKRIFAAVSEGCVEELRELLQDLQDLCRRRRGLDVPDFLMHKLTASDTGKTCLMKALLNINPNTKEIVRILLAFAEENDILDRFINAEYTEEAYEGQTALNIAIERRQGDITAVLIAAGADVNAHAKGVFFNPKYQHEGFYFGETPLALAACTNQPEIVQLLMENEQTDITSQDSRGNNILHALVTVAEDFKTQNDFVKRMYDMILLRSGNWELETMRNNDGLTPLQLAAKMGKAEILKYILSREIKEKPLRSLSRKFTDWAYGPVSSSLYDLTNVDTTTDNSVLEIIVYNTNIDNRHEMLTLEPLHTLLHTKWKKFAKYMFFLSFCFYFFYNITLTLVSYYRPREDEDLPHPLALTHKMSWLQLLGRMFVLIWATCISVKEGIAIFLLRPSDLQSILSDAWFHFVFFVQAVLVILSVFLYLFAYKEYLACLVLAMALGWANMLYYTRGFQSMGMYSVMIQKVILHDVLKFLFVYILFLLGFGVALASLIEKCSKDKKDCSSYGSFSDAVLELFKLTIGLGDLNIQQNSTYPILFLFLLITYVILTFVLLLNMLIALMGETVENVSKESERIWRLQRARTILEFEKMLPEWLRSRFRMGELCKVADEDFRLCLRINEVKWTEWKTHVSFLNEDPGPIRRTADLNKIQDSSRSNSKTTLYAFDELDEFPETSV
Assay: fluo-4 fluorometric Ca2+ assay, concentration-response, HEK cells expressing mouse TRPV3
Type: cell-based
Conditions: HEK cells expressing mouse TRPV3, fluo-4, room temperature, mean ± SD back-transformed from log space, n=5; read-out: EC50 for mouse TRPV3 activation
Description: KU-19-19 (DSMZ no. ACC 395), CAL-29 (DSMZ no. ACC 515), 647-V (DSMZ no. ACC 414), RT-4 (DSMZ no. ACC 412), and RT-112 (DSMZ no. ACC 418) bladder cancer cell lines were obtained from the Leibniz Institute DSMZ (German Collection of Microorganisms and Cell Cultures). Human TRPV3 (NM_145068, purchased from OriGene) and mouse TRPV3 (NM_001371006), rat TRPV1, mouse TRPV2, mouse TRPV4, human TRPM2, human TRPM8, and human TRPA1 were stably transfected in HEK293 cells as described before.[27] […]
All fluorometric Ca^2+ assays were performed in HBS buffer at room temperature. […] For the primary compound screening and the generation of concentration-response analyses, a robotic liquid handling station (Freedom Evo 150; Tecan) with a built-in custom-made fluorescence plate imager was used. […] Fluorescence was excited using a 470-nm light-emitting diode, and emitted light was imaged through a 515-nm–long pass filter with a cooled Zyla 5.5 camera (Andor). Fluorescence was recorded and processed under the control of the μ-Manager 2.0 gamma software (https://micro-manager.org.[28]). After recording baseline fluorescence, compounds were dispensed into the wells via the liquid handling device. […] For further analysis, fluorescence signals were calculated for each well, corrected for background intensities and normalized to the initial signals. […]

Work on `COC(=O)C12CN(Cc3ccccc3)CC1(C(=O)OC)CN(Cc1ccccc1)C2` (stereo not shown) [AV3-1] yielded an EC50 of 2 ± 1.4 µM.
